A short description of the data set: Drug level in CD1 mouse liver microsomes treated with 3-(1-(4-(4-((Pentan-2-yloxy)carbonyl)-5-(trifluoromethyl)-1H-pyrazol-1-yl)-phenyl)-1H-1,2,3-triazol-4-yl)benzoic acid at 50 uM after 60 mind by mass spectroscopic analysis. Type of data set: ADME, microsome. Background: Liver microsomes are a subcellular fraction often used to study metabolism.

Turning to `CCCC(C)OC(=O)c1cnn(-c2ccc(-n3cc(-c4cccc(C(=O)O[C@@H]5O[C@H](C(=O)O)[C@@H](O)[C@H](O)[C@H]5O)c4)nn3)cc2)c1C(F)(F)F` (stereo partly specified), the Drug uptake result is “Active”.

The values are drawn from ChEMBL document CHEMBL4152384, “Pyrtriazoles, a Novel Class of Store-Operated Calcium Entry Modulators: Discovery, Biological Profiling, and in Vivo Proof-of-Concept Efficacy in Acute Pancreatitis” (J Med Chem, 2018).
